Results from patent US20110313153A1, “5-HT4 INHIBITORS FOR TREATING AIRWAY DISEASES, IN PARTICULAR ASTHMA” (priority 2009, published 2011).
“Also recorded” adds a separate entry of the source.

Columns and labels:
GI tract [1] = test: Effect of the antagonist by itself on the studied GI functions; type: in vivo, dog; conditions: without agonist
Excerpt: (§1) Also the aroylated 4-aminomethylpiperidines 5-HT4 receptor antagonists (hereinafter also referred to as the compounds) of the present invention (e.g. compound M0014) were capable to suppress or inverse the 5-HT4 R-mediated prokinetic activity of serotonin or 5-HT4 R agonists in the GI tract (data not shown). For example, in conscious dogs, low doses of M0014 reversed the selective serotonin re-uptake inhibitor (SSRI)-induced loss of fundic compliance. […] As a final example, the compound reversed the 5-HT4 R agonist-induced stimulation of canine antral motility, measured with chronically implanted strain gauges.
Similar to SB-207266, the 5-HT4 R antagonist M0014 had by itself no effect on the studied GI functions mentioned above.

OVA-sensitized mice [2] = test: OVA-induced experimental asthma in mice: BAL cell infiltrate and MLN cytokines; type: in vivo, BALB/c mice
Experimental: (§2) BALB/c mice (n=6-8 per group) were sensitized to OVA by i.p. injection of OVA/alum (10 μg OVA grade V adsorbed to 1 mg aluminium hydroxide; Sigma-Aldrich) on days 0 and 7 and were subjected to OVA aerosol challenges (grade III) on days 17-19; aerosol challenges were dispensed from a jet nebulizer delivering 1% OVA in PBS for 30 minutes. Thirty minutes before each OVA exposure, mice were anesthetized using Avertin (Sigma-Aldrich) and received an i.t. injection of control vehicle, or of M0014 (0.1, 0.4 or 4 nM in PBS) in a volume of 80 μl. Twenty-four hours after the last OVA exposure, BAL was performed and LNs were resected and digested using collagenase/DNAse.
Flow cytometry and sorting. After counting and washing, BAL cells were stained for 30 minutes with FITC-labeled anti-I-Ad/I-Ed (macrophages/DCs), PE-labeled anti-CCR3 (eosinophils), Cy-chrome-labeled anti-CD3 and anti-CD19 (lymphocytes), and allophycocyanin-labeled (APClabeled) anti-CD11c (macrophages/DCs) in PBS containing 0.5% BSA and 0.01% sodium azide. Differential cell counts were analyzed by flow cytometry, as previously described (van Rijt et al., 2004).
Cytokine measurements. To measure cytokine levels, MLN cells were plated in round-bottomed 96-well plates (1×10^6 cells/ml) and restimulated with OVA (10 μg/ml) for 4 days. The presence of IL-4, IL-5, IL-13 and IFN-γ was assayed on supernatants by ELISA (BD).

OVA-sensitized mice [3] = test: Bronchial hyperreactivity (BHR) to i.v. metacholine, dynamic resistance and compliance; type: in vivo, BALB/c mice; conditions: M0014 prior to each allergen challenge; measured 24 hours after the last OVA aerosol; FIG. 2
Experimental: as §2
For the measurement of dynamic resistance and compliance, mice were anesthetized with urethane, paralyzed using d-tubocurarine, tracheotomized, and intubated with an 18-gauge catheter, followed by mechanical ventilation with a Flexivent apparatus (SCIREQ). Respiratory frequency was set at 120 breaths per min with a tidal volume of 0.2 ml and a positive end-expiratory pressure of […]. Increasing concentrations of metacholine were administered via the jugular vein. Dynamic resistance and compliance was recorded after a standardized inhalation maneuver given every 10 seconds for 2 minutes. Baseline resistance was restored before administering the subsequent doses of metacholine.

dog [4] = test: Dog model of delayed gastric emptying of a liquid meal; type: in vivo; conditions: data not shown
Excerpt: as §1

dog [5] = test: Canine antral motility measured with chronically implanted strain gauges; type: in vivo; conditions: data not shown
Excerpt: as §1

conscious dogs = test: SSRI-induced loss of fundic compliance in conscious dogs; type: in vivo, dog; conditions: low doses, data not shown
Excerpt: as §1

Balb/c mice = test: Zymosan induced inflammatory cell recruitment to the lung; type: in vivo, Female Balb/c mice
Experimental: Female Balb/c mice (7-8 weeks; 20 g) were used in all studies. The animals were kept in standard animal holding facilities and have unlimited access to food and water. Animals were randomized to receive vehicle or 0.1-0.2 ml/20 g mouse, M0014 (0.001, 0.01, 0.1 and 1 mg/kg) via the oral route 30 min prior to, and 6 h after the administration of zymosan (i.n; 20 μL to each nostril, to give a total volume of administration of 40 μL). Animals received zymosan A to give a total dose of 4 mg/mouse.
5 mg of M0014 was dissolved in 5 mL of sterile water to give 1 mg/ml solution. The solutions were prepared freshly each time. The 1 mg/ml solution was diluted to a 0.1, 0.01, 0.001 and 0.0001 mg/ml solution. From these concentrations, 0.2 ml was administered orally to obtain 1, 0.1, 0.01 and 0.001 mg/kg respectively. Sterile water used as control vehicle.
Twenty-four hours after dosing, the mice were killed by overdose with an injectable anaesthetic and 0.5 ml of saline was injected into lung via a tracheal cannula and the fluid collected. This was repeated 3 times. Approximately 1 ml of lavage fluid was collected and stored on ice. Total cells and differential cells were counted and a reduction in neutrophil numbers was the primary end point.

guinea-pigs = conditions: antigen induced, guinea pig model; cited from earlier work
[6] = test system: human airway epithelial cells, dendritic cells, monocytes; conditions: no effect of the antagonist per se described; cited from earlier work
GI tract [7] = conditions: Sanger et al., cited from earlier work
[8] = MLN cells restimulated with OVA for 4 days, ELISA, FIG. 1C and D
[9] = i.t. 80 μl, 0.1, 0.4 or 4 nM, 30 minutes prior to each allergen challenge, FIG. 1A

Structure (SMILES): COCCCN1CC[C@@H](CNC(=O)c2cc(C)cc3c2OCCCO3)[C@H](O)C1 (relative stereo) [M0014, (3S-trans)-8-methyl-3,4-dihydro-3H-benzo[b][1,4]dioxepine-6-carboxylic acid [3-hydroxy-1-(3-methoxy-propyl)-piperidine-4-ylmethyl]-amide]
- effect by itself on the studied GI functions (GI tract [1]): no effect
- IFN-γ production in the MLNs (OVA-sensitized mice [2]; [8]): weak increase
- levels of IL-4 in the MLNs (OVA-sensitized mice [2]; [8]): mildly but significantly reduced
- levels of IL-5 in the MLNs (OVA-sensitized mice [2]; [8]): mildly but significantly reduced
- levels of IL-13 in the MLNs (OVA-sensitized mice [2]; [8]): mildly but significantly reduced
- eosinophil infiltrate into the BAL compartment (OVA-sensitized mice [2]; [9]): significant dose-dependent reduction
- lymphocyte infiltrate into the BAL compartment (OVA-sensitized mice [2]; [9]): significant dose-dependent reduction
- macrophage infiltrate into the BAL compartment (OVA-sensitized mice [2]; [9]): significant dose-dependent reduction
- OVA-induced change in metacholine responsiveness (OVA-sensitized mice [3]): markedly attenuated
- 5-HT4 R agonist-induced acceleration of gastric emptying (dog [4]): potently inhibited
- 5-HT4 R agonist-induced stimulation of canine antral motility (dog [5]): reversed
- SSRI-induced loss of fundic compliance (conscious dogs): reversed
- neutrophil cell number (Balb/c mice; FIG. 3 legend, <0.05 cf zymosan alone): significant effect
- total number of cells recruited to the airways (Balb/c mice; oral, 0.01 and 0.1 mg/kg, 30 min prior to and 6 h after zymosan, P<0.05 Dunnett's test versus control, FIG. 3a): significant effect; also recorded: significantly reduced
- decrease in the recruitment of neutrophils to the airways (Balb/c mice; oral, 0.01 and 0.1 mg/kg, P<0.01 Dunnett's test vs control, FIG. 3c): 40-50%

Structure (SMILES): Cn1cc(C(=O)OCC2CCN(CCNS(C)(=O)=O)CC2)c2ccccc21 [GR113808]
- airway hyperresponsiveness (guinea-pigs): capable to normalize

Structure (SMILES): COc1cc(COc2cc(N)c(Cl)cc2C(=O)CCC2CCN(CCNS(C)(=O)=O)CC2)cc(OC)c1 [RS 39604]
- effects of 5-HT [6]: inhibit

Structure (SMILES): CCCCN1CCC(CNC(=O)c2c3n(c4ccccc24)CCCO3)CC1 [piboserod]
- 5-HT4 R-mediated effects of serotonin (5-HT) in the GI tract (GI tract [7]; 2000, Bharucha et al.): antagonizes
- normal bowel motility (GI tract [7]; animals or humans, 1998): does not seem to affect
